This is an account of results in US9636289B2, “Composition for preventing or treating hair loss or promoting hair growth comprising secoiridoid glucoside derivatives” (priority 2012, dated 2017).

Molecules are shown by their SMILES. “Also recorded” adds a separate entry of the source.

For one data set, the system named is hair follicles. In words: Histological analysis of the back skin (hair growth cycle, hair follicles). Conditions: for Anagen ratio / anagen phases observed (number of cases): 4 animals per group. Format: in vivo, mouse. The text has this:
At 6 weeks after subcutaneous injection, mice were sacrificed. Their back skin tissue samples were isolated using scissors and forceps and fixed by formalin. After dehydration with serial alcohol and xylene, the tissues were paraffinized. Paraffinized tissues were sectioned using a microtomb in a thickness of 5 μm and used alcohol and xylene to remove paraffin. Then, the tissues were stained with hematoxyline/eosin, followed by observation of histological changes in hair follicles under an optical microscope. The hair growth cycles in the tissues were pathologically diagnosed by specialists, and quantity and diameter of hair follicle were measured under an optical microscope.

Data set [1] in a line: Measurement on changes in body weight. It is filed as in vivo, mouse. Conditions: initial body weights and at 6 weeks; vs negative control group (Con). The method, then:
12 of 6-week-old male C57BL/6N mice (Orientbio) were adapted to the environment for 2 weeks. Then, they were divided into total 3 groups, the negative control group (Con), the positive control group (MXD) and oleuropein group (Ole), and used for test. The environment for animals were maintained at 21±2.0° C. and relative humidity 50±5% under 12 hours light/dark cycle. They were fed a food (chow) and water with free access.
In order to verify an effect for promoting hair growth, 8-week-old mice in telogen were used for test. Hairs of their back were removed using a clipper for mouse. They were subcutaneously injected with 0.1 mL of sample at the part, everyday. Before subcutaneous injection, the test substance oleuropein (0.8 mg/0.1 mL) and the control drug minoxidil were dissolved in corn oil to use. The negative control group was subcutaneously injected with only vehicle (corn oil). The application was performed once, every P.M. 4:00 for 6 weeks. […] To assess level of hair growth, the hair length was measured using ruler.
Body weight was measured weekly during entire test period, from the point before the subcutaneous injection of the hair restorers to the end point of the subcutaneous injection of the hair restorers.

The subject of a further data set is Wnt10b. In words: RT-PCR gene expression in back skin tissue, Wnt10b. Format: in vivo, mouse. The settings on record: 6 weeks s.c., compared to the negative control group. As for the experimental part:
(§1) After adding 1 mL of Trizol agent to 50-100 mg of test animal skin tissues, the mixture was homogenized and centrifuged at 12,000×g for 10 min at 4° C. The supernatant was transferred to a new tube to remove fat layer. Then, 200 μl of chloroform was added to the tube, followed by vortexing. The same procedure was repeated twice and then the supernatant was transferred to a new tube, followed by addition of isopropanol and the supernatant at 1:1 ratio. The mixture was vigorously shaken 10 times and then incubated for 10 min at room temperature, followed by centrifugation at 12,000×g for 10 min at 4° C. to remove the supernatant. After adding 1 mL of 70% ethanol to the remaining pellet, it was centrifuged at 7,500×g for 5 min at 4° C. After removing the ethanol, the RNA pellet contained in the tube was dried for 5 min at 4° C. and dissolved in nuclease-free water. The RNA sample concentration was measured at a wavelength of 260 nm and 280 nm using a UV/VIS spectrophotometer (Beckman coulter, DU730) and the integrity of RNA sample was verified by agarose gel electrophoresis.
(§2) The RNA sample obtained was trasnscribed using oligo dT primer and SuperScript reverse transcriptase (GIBCO BRL, Gaithersburg, Md., USA) to synthesize cDNA. The PCR amplification was performed using the cDNA as templates and primers complementary to cDNA 5′ and 3′ flanking sequence. […]

For data set [2], the system named is KGF (keratocyte growth factor). In words: RT-PCR gene expression in back skin tissue, KGF. Conditions: 6 weeks s.c., compared to the negative control group, FIG. 5. Format: in vivo, mouse. As for the experimental part: as §1, §2
Data set [3] deals with β-catenin. In words: RT-PCR gene expression in back skin tissue, β-catenin. Format: in vivo, mouse. Conditions: 6 weeks s.c., compared to the negative control group. As for the experimental part:
as §1, §2

Data set [4] relates to GSK3β (glycogen synthase kinase 3β). Nature of the data set: RT-PCR gene expression in back skin tissue, GSK3β. Conditions: 6 weeks s.c., compared to the negative control group. It is filed as in vivo, mouse. As for the experimental part: as §1, §2
The next data set concerns Axin. In words: RT-PCR gene expression in back skin tissue, Axin. Conditions: 6 weeks s.c., compared to the negative control group. Format: in vivo, mouse. As for the experimental part: as §1, §2
Data set [5] concerns LRP5 (low-density lipoprotein receptor-related protein 5). Nature of the data set: RT-PCR gene expression in back skin tissue, LRP5. The settings on record: 6 weeks s.c., compared to the negative control group. It is filed as in vivo, mouse. The method, then:
as §1, §2

For data set [6], the system named is IGF1 (insulin-like growth factor 1). In words: RT-PCR gene expression in back skin tissue, IGF1. The settings on record: 6 weeks s.c., compared to the negative control group, FIG. 5. It is filed as in vivo, mouse. The method, then: as §1, §2
The subject of data set [7] is HGF (hepatocyte growth factor). In words: RT-PCR gene expression in back skin tissue, HGF. Conditions: 6 weeks s.c., compared to the negative control group, FIG. 5. Format: in vivo, mouse. The method, then: as §1, §2
Data set [8] has as its system FZDR (frizzled receptor 1). Nature of the data set: RT-PCR gene expression in back skin tissue, FZDR. Conditions: 6 weeks s.c., compared to the negative control group. It is filed as in vivo, mouse. As for the experimental part:
as §1, §2

The test system of a further data set is C57BL/6N mice. In words: Hair re-growth in hair-removed telogen mice, subcutaneous injection for 6 weeks (visual observation, hair length). Conditions: for hair growth state (visual): s.c. 0.8 mg/0.1 mL in corn oil daily. It is filed as in vivo, mouse.
The conditions of data set [9]: cited from earlier work.
The next data set deals with IGF1. Nature of the data set: Immunohistochemical test on skin tissue, IGF1. It is filed as in vivo, mouse. Conditions: 6 weeks s.c., FIG. 4. The method, then: (§3) In order to verify expression amounts of IGF1 and β-catenin related with hair growth in skin tissue, each primary antibody to IGF1 and β-catenin was diluted to 1:50, added to tissue sections, and incubated for 12 hours at room temperature. The primary antibody was diluted with the mixture of 0.1% normal goat serum (Vector Laboratories Inc.) and 0.3% Triton X-100 (Sigma) in 0.1 M phosphate buffer solution (PB). The tissue sections were washed twice at room temperature for 15 minutes in 0.1M PB. Then, secondary antibody [biotinylated anti-rabbit IgG (Vector Laboratories Inc.)] was diluted to 1:200, added to the tissue sections, and incubated for 1 hour at room temperature. The tissue sections were washed twice at room temperature for 15 minutes in 0.1M PB, soaked in peroxidase-labeled ABC solution, and incubated for 1 hour at room temperature. The tissue sections were washed twice at room temperature for 15 minutes in 0.1M PB. Then, the tissue sections were reacted for 5 min with a solution in which 30 mg of 3-3′ diaminobenzidine was dissolved in 150 ml of 0.1M PB, added with concentration of 0.005% of hydrogen peroxide, and reacted for 5 min to occur color reaction. The tissue sections were washed several times at room temperature in 0.1M PB. […]

Data set [10] concerns β-catenin. Nature of the data set: Immunohistochemical test on skin tissue, β-catenin. It is filed as in vivo, mouse. Conditions: 6 weeks s.c., FIG. 4. As for the experimental part:
as §3

The subject of data set [11] is VEGF (vascular endothelial growth factor). Nature of the data set: RT-PCR gene expression in back skin tissue, VEGF. Conditions: 6 weeks s.c., compared to the negative control group, FIG. 5. Format: in vivo, mouse. The method, then: as §1, §2

On to `Nc1cc(N2CCCCC2)nc(N)[n+]1[O-]` [minoxidil, reference compound], for which, in the data set with hair follicles (back skin at 6 weeks), the Anagen ratio stood at 25% and the “anagen phases observed (number of cases)” value is recorded as 1 case. For the same compound, in [1], the “body weight, difference between groups” value was “no significant differences”.

For the compound `C/C=C1/[C@H](O[C@@H]2O[C@H](CO)[C@@H](O)[C@H](O)[C@H]2O)OC=C(C(=O)OC)[C@H]1CC(=O)OCCc1ccc(O)c(O)c1` [oleuropein], the “gene expression level of Wnt10b” value in the data set on Wnt10b is listed as “significantly increased”. In addition, in [2], the “gene expression level of KGF” value is given as “significantly increased”. In addition, in the data set with hair follicles (back skin at 6 weeks), the “hair follicle length / appearance” value is “became longer and they were expressed into skin”; the Anagen ratio is given as 50%; the “anagen phases observed (number of cases)” value was determined as 2 case. Moreover, the “Histological diagnosis of hair growth cycle, individual animals (Animal ID 1-4)” value in the data set on hair follicles (back skin at 6 weeks after s.c. injection) was “Telogen; also recorded: Anagen”. Also, in the data set with hair follicles (image analysis, compared to the negative control group), the “diameter of the hair follicles” value was “significantly increased”. Moreover, the “number of hair follicles” value in the data set on hair follicles (optical microscope 40× magnification, compared to the negative control group, FIG. 3) is listed as “significantly increased”. The “gene expression level of β-catenin” value with β-catenin [3] is on record as “significantly increased”. The “gene expression level of GSK3β” value in data set [4] is “significantly decreased”. The “gene expression level of Axin” value with Axin is recorded as “significantly decreased”. Also, the “gene expression level of LRP5” value in [5] is recorded as “significantly increased”. Further, in data set [6], the “gene expression level of IGF1” value was “significantly increased”. In addition, in [7], the “gene expression level of HGF” value is reported as “significantly increased”. In addition, in [8], the “gene expression level of FZDR (frizzled receptor 1)” value is “significantly increased”. The “effect for promoting hair growth (visual) compared with minoxidil” value with C57BL/6N mice (6 weeks s.c. injection, FIG. 1) is “more excellent effect for promoting hair growth than that of the minoxidil”. Further, the “effect for stimulating hair growth (hair length) compared with minoxidil” value with C57BL/6N mice (6 weeks s.c. injection, FIG. 2) was “excellent effect for stimulating hair growth than that of the minoxidil”. The hair length result with C57BL/6N mice (at 3 weeks, p<0.05) is given as “significantly increased”. The “hair growth state (visual)” value in the data set on C57BL/6N mice (at 3 weeks) is reported as “hairs were grown”. In the data set on C57BL/6N mice (at 6 weeks), the “hair length, increase compared to the negative control group” value stood at 62% and the “hair growth state (visual)” value is on record as “hairs were vigorously grown”. For the same compound, in data set [9] (mouse treated with 1 g/kg (body weight) for 7 days), the toxicity result is reported as “no toxicity”. In data set [9] (through various experiments), the LD50 result is on record as “may not be calculated”. Moreover, in the data set with IGF1, the “effect for increasing protein expression level of IGF1 compared with minoxidil” value is listed as “more excellent effect”. In addition, the “protein expression level of IGF1” value in the data set on IGF1 (vs the negative group) was “much more highly detected”. Moreover, in the data set with β-catenin [10], the “effect for increasing protein expression level of β-catenin compared with minoxidil” value is reported as “more excellent effect”. In addition, in the data set with β-catenin [10] (vs the negative group), the “protein expression level of β-catenin” value was “much more highly detected”. For the same compound, in data set [11], the “gene expression level of VEGF” value is recorded as “significantly increased”.
